Laboratory results: patent US20150368230A1, “RADIOLABELED QUINAZOLINE DERIVATIVES” (priority 2013, published 2015)

Columns and labels:
[1] = PET imaging with cold afatinib added to the tracer injection; format: in vivo, mice; details: cold dose of 100 ng afatinib added
Text: Showing that imaging of the tumor should be done at high specific activity.

P-gp = assay: PET imaging with P-gp blocking by tariquidar
[2] = Metabolite analysis in plasma after injection of tracer; format: in vivo, Balb/C mice; details: for Parent (%): plasma
Method: The mice were sacrificed at 15 (n=4) and 45 (n=4) min post-injection. At these time points, about 1.5 mL of blood was collected via a heart puncture. […] The cartridge was washed with 5 mL of H2O to collect polar radioactive metabolites. Thereafter, the tC2 Sep-Pak cartridge was eluted with 2 mL of MeOH and 1 mL of H2O to collect the mixture of apolar metabolites. […] HPLC was performed on a Dionex Ultimate 3000 system, equipped with a 1 mL loop. As a stationary phase a Phenomenex Gemini C18, 250×10 mm, 5 μm was used.

H1975 xenograft [3] = assay: Biodistribution studies, H1975 tumor bearing mice; format: in vivo, nude mice (nu/nu); details: 5 minutes p.i.
Method: (§1) The mice were sacrificed and dissected at 5, 30, 60 and 120 minutes post-injection. Blood, urine, skin, left tumor, right tumor, muscle, heart, lung, liver, kidney and brain were collected, weighed and counted for radioactivity in a Wallac Compugamma 1210 counter (n=3 for each time point). Biodistribution data are expressed as percentage of injected dose per gram (% ID/g) tissue for each organ (FIG. 2).

A549 xenograft [4] = assay: Dynamic PET imaging, A549 xenograft; format: in vivo, nude mice; details: A549 (insensitive), no blocking
Method: (§2) Dynamic PET imaging was performed on three cancer xenograft (A549, H1975 and HCC827) lines in nude mice. Each mouse (n=3) carried one tumor of the same cancer xenograft line, which were located on the left or right flank. Imaging was performed for a duration of 120 min using a double-LSO/LYSO layer high-resolution research tomograph (HRRT; CTI/Siemens, Knoxville, Tenn., USA). The mice were anesthetized with 4% and 2% isoflurane in 1 L·min^−1 oxygen for induction and maintenance, respectively. First, for attenuation and scatter correction, a transmission scan was acquired using a 740-MBq two-dimensional (2D) fan-collimated ^137Cs (662 keV) moving point source. […] Positron emission scans were acquired in list mode and rebinned into the following frame sequence: 10×60 s, 4×300 s, and 9×600 s. After 120 min, [^18F]FDG was administered (I.V. ocular plexus) to the mice followed by scanning for another 60 min. Following corrections for decay, dead time, scatter and randoms, scans were reconstructed using an iterative 3D ordered-subsets weighted least-squares analysis (3D-OSWLS). Point source resolution varied across the field of view from approximately 2.3 to 3.2-mm full width at half maximum in the transaxial direction and from 2.5 to 3.4 mm in the axial direction. Post-filtering was not performed after reconstruction.

HCC827 xenograft = assay: Biodistribution studies, HCC827 tumor bearing mice; format: in vivo, nude mice (nu/nu); details: 5 minutes p.i.
Method: as §1

A549 xenograft [5] = assay: Biodistribution studies, A549 tumor bearing mice; format: in vivo, nude mice (nu/nu); details: 5 minutes p.i.
Method: as §1

H1975 xenograft [6] = assay: Dynamic PET imaging, H1975 xenograft; format: in vivo, nude mice; details: H1975 (insensitive), no blocking
Method: as §2

[7] = test system: A549, H1975 or HCC827 xenografts; assay: Biodistribution studies, statements for all investigated tumor types; format: in vivo, nude mice (nu/nu)
Method: as §1

tumor uptake with cold afatinib co-injected [1]: reduced to background levels
brain uptake (P-gp; P-gp active (no block)): washed out from the brain
brain uptake (P-gp; P-gp blocked with tariquidar): remains in the brain
P-gp substrate status (P-gp; absolute tumor uptake increased when P-gp blocked): substrates
washout after P-gp blocking (P-gp; tumor, tariquidar block): hardly shows any washout
in vivo stability of the tracer ([2]; metabolic profile of table 1): excellent in vivo stability
Parent (%) ([2]; 15 min p.i.): 87.5 ± 0.8%
Parent (%) ([2]; 45 min p.i.): 83.3 ± 1.3%
blood level of the tracer (H1975 xenograft [3]): 1.59 % ID/g
blood level of the tracer (HCC827 xenograft): 1.56 % ID/g
blood level of the tracer (A549 xenograft [5]): 2.17 % ID/g
uptake in the metabolic organs (kidney and liver) ([7]; mouse, in vivo): rapid and high uptake
activity remained in the tumor ([7]; tumors, 120 minutes p.i.): around 1 % ID/g
Compound: CN(C)C/C=C/C(=O)Nc1cc2c(Nc3ccc([18F])c(Cl)c3)ncnc2cc1O[C@H]1CCOC1 [[^18F]afatinib, [^18F](S,E)-N-(4-((3-chloro-4-fluorophenyl)amino)-7-((tetrahydrofuran-3-yl)oxy)quinazolin-6-yl)-4-(dimethylamino)but-2-enamide]
uptake in tumor compared to background (A549 xenograft [4]): hardly an increase of uptake in the tumors compared to the background
uptake in tumor compared to background (H1975 xenograft [6]): hardly an increase of uptake in the tumors compared to the background
